In patent US7605265B2, “Heterodimers and methods of using them” (priority 2007, dated 2009):

Assays:
transient focal ischemia = experiment: MCAO (middle carotid artery occlusion model), transient focal ischemia; assay type: in vivo, mice; details: for infarct volume and hemispheric swelling (in words): 5 minutes after ischemia (compound A: 0.05 and 0.1 mg/kg), FIG. 5b, 5f; for neurological deficits induced by ischemia (in words): administered 5 minutes after ischemia
Protocol: The MCAO (middle carotid artery occlusion model) was performed to investigate the protective effects of compounds A, B and C on the brain when the brain was exposed to transient focal ischemia (lack of oxygen), emulating brain conditions during a stroke. […] The ability of the novel compounds to protect against the appearance of these neurological deficits was examined using a four-point scale neurological scoring system (Mann Whitney U test). For each of the following observable signs, the distribution of test subjects was noted (with and without treatment with the invention after ischemia): (0) no observable neurological deficits (normal); (1) failure to extend the left forepaw fully (mild); (2) circling to the contralateral side (moderate); and (3) loss of walking and righting reflex (severe). • (ii) The brains of the test subjects slices were sectioned into five pieces and the infarct area and volume of each slice was measured. The % of infarct area in test subjects treated with the invention after ischemia was compared to that of the control group for each brain slice. • (iii) Hemispheric brain swelling and infarct volume (the area of dead tissue caused by inadequate blood supply) was measured for test subjects treated with the invention after ischemia, and compared to that of the control group.
The compounds were administered 5 minutes after ischemia, 5 minutes after reperfusion, or 6 hours after ischemia. FIGS. 5a to 5f show results for the heterodimers compound B, C or A respectively, when administered 5 minutes after ischemia or reperfusion. FIGS. 5g and 5h show the results when the novel heterodimers were administered 6 hours after ischemia.
Compound B was administered at 5 minutes after ischemia. Distribution of neurological scores based on a four-point scale neurological scoring system (Mann Whitney U test): (0) no observable neurological deficits (normal); (1) failure to extend the left forepaw fully (mild); (2) circling to the contralateral side (moderate); and (3) loss of walking and righting reflex (severe).
The brain was sectioned into five pieces, each 2-mm thick. The infarct area of each posterior surface was analyzed by an image analysis program. The percentage of infarct area and volume were calculated and presented as the percentage of the infarct area of the contralateral hemisphere to eliminate the contribution of edema to the ischemic lesion.
The infarct area of each posterior surface was analyzed by an image analysis program. Hemispheric brain swelling was calculated as follows (ipsilateral volume−contralateral volume)/contralateral volume×100%.

[1] = biological target: T1, acetylcholinesterase (AChE) (Rattus norvegicus, UniProt P37136); experiment: In vitro inhibition of AChE (cholinesterase assay, Ellman method); assay type: biochemical; details: for times more potent than bis(7)-tacrine / times more potent than tacrine: AChE inhibition; for Selectivity AchE*: IC50 (BChE)/IC50 (AChE); for IC50: enzyme prepared from rat cortex
T1 construct: from tissue; host or cells: rat brain cortex
T1 sequence (P37136 32-614): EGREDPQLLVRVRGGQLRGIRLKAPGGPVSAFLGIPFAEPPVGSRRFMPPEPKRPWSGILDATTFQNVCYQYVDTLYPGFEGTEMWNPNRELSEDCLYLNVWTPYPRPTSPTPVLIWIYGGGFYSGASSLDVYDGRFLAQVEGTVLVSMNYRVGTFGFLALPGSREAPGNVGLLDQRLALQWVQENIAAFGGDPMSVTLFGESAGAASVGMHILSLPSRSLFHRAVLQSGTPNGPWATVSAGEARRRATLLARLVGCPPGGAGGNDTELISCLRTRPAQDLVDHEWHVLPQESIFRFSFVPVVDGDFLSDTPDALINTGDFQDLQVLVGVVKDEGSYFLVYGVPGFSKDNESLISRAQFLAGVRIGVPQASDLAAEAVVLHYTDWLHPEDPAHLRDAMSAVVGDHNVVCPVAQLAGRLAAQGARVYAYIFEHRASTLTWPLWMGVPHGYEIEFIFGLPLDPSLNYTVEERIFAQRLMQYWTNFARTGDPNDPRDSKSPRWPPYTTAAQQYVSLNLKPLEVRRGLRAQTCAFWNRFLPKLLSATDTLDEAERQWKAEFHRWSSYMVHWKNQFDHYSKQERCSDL
Protocol: The in vitro inhibition of the enzymes acetylcholinesterase (AChE) and butyrylcholinesterase (BChE) were assessed. BChE, like AChE, breaks down acetylcholine (ACh) but is found in plasma and other organs such as the liver, skin and gastrointestinal tract.
The enzymes, AChE and BChE, used in the inhibition studies were prepared from the cortex and serum of decapitated rats, respectively.

[2] = biological target: T2, butyrylcholinesterase (BChE) (Rattus norvegicus, UniProt Q9JKC1); experiment: biochemical
T2 construct: from tissue; host or cells: rat serum

[3] = 0.005 mg/kg, 5 minutes after ischemia
[4] = 0.05 mg/kg, 5 minutes after ischemia
[5] = 0.1 mg/kg, 5 minutes after ischemia
[6] = 0.2 mg/kg, 5 minutes after ischemia
[7] = 0.005 μg/kg, 6 hours after ischemia
[8] = 0.05 μg/kg, 5 minutes after ischemia
[9] = 0.05 μg/kg, 6 hours after ischemia
[10] = 0.5 μg/kg, 5 minutes after ischemia

T2 sequence (Q9JKC1 24-597): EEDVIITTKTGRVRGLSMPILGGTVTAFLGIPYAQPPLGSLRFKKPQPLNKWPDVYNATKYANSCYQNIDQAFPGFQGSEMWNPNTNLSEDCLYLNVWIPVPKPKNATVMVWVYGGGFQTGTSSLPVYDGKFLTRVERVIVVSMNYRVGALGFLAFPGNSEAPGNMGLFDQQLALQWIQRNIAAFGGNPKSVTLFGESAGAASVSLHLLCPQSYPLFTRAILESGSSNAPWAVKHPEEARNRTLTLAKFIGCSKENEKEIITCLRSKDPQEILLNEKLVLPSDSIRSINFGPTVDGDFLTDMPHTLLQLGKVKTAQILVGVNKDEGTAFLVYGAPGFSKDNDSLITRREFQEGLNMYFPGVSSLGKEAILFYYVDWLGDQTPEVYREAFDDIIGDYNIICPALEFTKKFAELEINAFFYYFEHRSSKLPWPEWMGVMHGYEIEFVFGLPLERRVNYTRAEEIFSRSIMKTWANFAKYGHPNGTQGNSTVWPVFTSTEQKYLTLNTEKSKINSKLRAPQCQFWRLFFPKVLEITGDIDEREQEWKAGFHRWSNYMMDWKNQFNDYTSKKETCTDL

O=c1ccc2c([nH]1)CCC(NCCCNc1c3c(nc4cc(Cl)ccc14)CCCC3)C2 (centres unmarked) [Compound A]
% Infarct area in brain slice # 1 (transient focal ischemia; [3]): 2.2 ± 2.0%
% Infarct area in brain slice # 2 (transient focal ischemia; [3]): 48.8 ± 4.3%
% Infarct area in brain slice # 3 (transient focal ischemia; [3]): 49.3 ± 4.4%
% Infarct area in brain slice # 4 (transient focal ischemia; [3]): 26.5 ± 9.3%
% Infarct area in brain slice # 5 (transient focal ischemia; [3]): −4.3 ± 0.6%
Hemispheric swelling (%) (transient focal ischemia; [3]): 10.3 ± 0.4%
Infarct volume (%) (transient focal ischemia; [3]): 31.3 ± 4.3%
Observed Neurological Deficits Mean ± SEM (transient focal ischemia; [3]): 1.6 ± 0.2
Observed Neurological Deficits, score 0 (number of animals) (transient focal ischemia; [3]): 0
Observed Neurological Deficits, score 1 (number of animals) (transient focal ischemia; [3]): 2
Observed Neurological Deficits, score 2 (number of animals) (transient focal ischemia; [3]): 3
Observed Neurological Deficits, score 3 (number of animals) (transient focal ischemia; [3]): 0
n (dead/total): dead/total (transient focal ischemia; [3]): 5 (5/10)
% Infarct area in brain slice # 1 (transient focal ischemia; [4]): −0.4 ± 2.2%
% Infarct area in brain slice # 2 (transient focal ischemia; [4]): 39.1 ± 2.4 %
% Infarct area in brain slice # 3 (transient focal ischemia; [4]): 44.5 ± 0.9 %
% Infarct area in brain slice # 4 (transient focal ischemia; [4]): 17.1 ± 3.2 %
% Infarct area in brain slice # 5 (transient focal ischemia; [4]): −6.3 ± 2.8%
Hemispheric swelling (%) (transient focal ischemia; [4]): 15.5 ± 1.1%
Infarct volume (%) (transient focal ischemia; [4]): 24.8 ± 1.1 %
Observed Neurological Deficits Mean ± SEM (transient focal ischemia; [4]): 1.2 ± 0.2
Observed Neurological Deficits, score 0 (number of animals) (transient focal ischemia; [4]): 0
Observed Neurological Deficits, score 1 (number of animals) (transient focal ischemia; [4]): 5
Observed Neurological Deficits, score 2 (number of animals) (transient focal ischemia; [4]): 1
Observed Neurological Deficits, score 3 (number of animals) (transient focal ischemia; [4]): 0
n (dead/total): dead/total (transient focal ischemia; [4]): 6 (1/7)
% Infarct area in brain slice # 1 (transient focal ischemia; [5]): 2.0 ± 1.8%
% Infarct area in brain slice # 2 (transient focal ischemia; [5]): 49.5 ± 2.0 %
% Infarct area in brain slice # 3 (transient focal ischemia; [5]): 48.4 ± 1.8 %
% Infarct area in brain slice # 4 (transient focal ischemia; [5]): 10.4 ± 3.3 %
% Infarct area in brain slice # 5 (transient focal ischemia; [5]): −9.9 ± 1.7%
Hemispheric swelling (%) (transient focal ischemia; [5]): 12.5 ± 1.1%
Infarct volume (%) (transient focal ischemia; [5]): 26.5 ± 1.4 %
Observed Neurological Deficits Mean ± SEM (transient focal ischemia; [5]): 1.2 ± 0.1
Observed Neurological Deficits, score 0 (number of animals) (transient focal ischemia; [5]): 0
Observed Neurological Deficits, score 1 (number of animals) (transient focal ischemia; [5]): 7
Observed Neurological Deficits, score 2 (number of animals) (transient focal ischemia; [5]): 2
Observed Neurological Deficits, score 3 (number of animals) (transient focal ischemia; [5]): 0
n (dead/total): dead/total (transient focal ischemia; [5]): 9 (4/13)
% Infarct area in brain slice # 1 (transient focal ischemia; [6]): 1.3 ± 0.7%
% Infarct area in brain slice # 2 (transient focal ischemia; [6]): 44.7 ± 6.6%
% Infarct area in brain slice # 3 (transient focal ischemia; [6]): 49.0 ± 3.8%
% Infarct area in brain slice # 4 (transient focal ischemia; [6]): 37.3 ± 3.8%
% Infarct area in brain slice # 5 (transient focal ischemia; [6]): −3.3 ± 1.6%
Hemispheric swelling (%) (transient focal ischemia; [6]): 15.2 ± 1.2%
Infarct volume (%) (transient focal ischemia; [6]): 33.8 ± 1.6%
Observed Neurological Deficits Mean ± SEM (transient focal ischemia; [6]): 1.9 ± 0.7
Observed Neurological Deficits, score 0 (number of animals) (transient focal ischemia; [6]): 0
Observed Neurological Deficits, score 1 (number of animals) (transient focal ischemia; [6]): 2
Observed Neurological Deficits, score 2 (number of animals) (transient focal ischemia; [6]): 4
Observed Neurological Deficits, score 3 (number of animals) (transient focal ischemia; [6]): 1
n (dead/total): dead/total (transient focal ischemia; [6]): 7 (4/11)
infarct area (in words) (transient focal ischemia; 0.05 and 0.1 mg/kg, 5 minutes after ischemia, FIG. 5e): improvement in the infarct area
infarct volume and hemispheric swelling (in words) (transient focal ischemia): decreases infarct volume but not hemispheric swelling
neurological deficits induced by ischemia (in words) (transient focal ischemia): reduced neurological deficits induced by ischemia
times more potent than bis(7)-tacrine [1]: ~53
times more potent than tacrine [1]: ~200
Selectivity AchE* [1]: 227.23
IC50 [1]: 0.25 ± 0.05 nM
IC50 [2]: 56.7 ± 25 nM

O=c1ccc2c([nH]1)CCCC2NCCCCCCCNc1c2c(nc3cc(Cl)ccc13)CCCC2 (centres unmarked) [Compound B]
% Infarct area in brain slice # 1 (transient focal ischemia; [7]): 11.9 ± 4.3%
% Infarct area in brain slice # 2 (transient focal ischemia; [7]): 43.4 ± 6.5%
% Infarct area in brain slice # 3 (transient focal ischemia; [7]): 40.1 ± 4.7 %
% Infarct area in brain slice # 4 (transient focal ischemia; [7]): 24.3 ± 7.5%
% Infarct area in brain slice # 5 (transient focal ischemia; [7]): −1.4 ± 1.0%
Hemispheric swelling (%) (transient focal ischemia; [7]): 7.3 ± 1.2%
Infarct volume (%) (transient focal ischemia; [7]): 28.5 ± 3.4%
Observed Neurological Deficits Mean ± SEM (transient focal ischemia; [7]): 1.2 ± 0.2
Observed Neurological Deficits, score 0 (number of animals) (transient focal ischemia; [7]): 0
Observed Neurological Deficits, score 1 (number of animals) (transient focal ischemia; [7]): 7
Observed Neurological Deficits, score 2 (number of animals) (transient focal ischemia; [7]): 2
Observed Neurological Deficits, score 3 (number of animals) (transient focal ischemia; [7]): 0
n (dead/total): dead/total (transient focal ischemia; [7]): 9 (0/9)
% Infarct area in brain slice # 1 (transient focal ischemia; [8]): 11.5%
% Infarct area in brain slice # 2 (transient focal ischemia; [8]): 42.6 ± 4.8 %
% Infarct area in brain slice # 3 (transient focal ischemia; [8]): 40.0 ± 6.6 %
% Infarct area in brain slice # 4 (transient focal ischemia; [8]): 34.0%
% Infarct area in brain slice # 5 (transient focal ischemia; [8]): 0.1%
Hemispheric swelling (%) (transient focal ischemia; [8]): 6.5 ± 1.5%
Infarct volume (%) (transient focal ischemia; [8]): 31.2 ± 4.6 %
Observed Neurological Deficits Mean ± SEM (transient focal ischemia; [8]): 1.1 ± 0.1
Observed Neurological Deficits, score 0 (number of animals) (transient focal ischemia; [8]): 0
Observed Neurological Deficits, score 1 (number of animals) (transient focal ischemia; [8]): 8
Observed Neurological Deficits, score 2 (number of animals) (transient focal ischemia; [8]): 1
Observed Neurological Deficits, score 3 (number of animals) (transient focal ischemia; [8]): 0
n (dead/total): dead/total (transient focal ischemia; [8]): 9 (2/11)
infarct area in brain slices (in words) (transient focal ischemia; 0.05 μg/kg, 5 minutes after ischemia, FIG. 5a): reduced the infarct area in brain slices #2 and #3
% Infarct area in brain slice # 1 (transient focal ischemia; [9]): 15.7 ± 2.9%
% Infarct area in brain slice # 2 (transient focal ischemia; [9]): 50.5 ± 7.2%
% Infarct area in brain slice # 3 (transient focal ischemia; [9]): 41.7 ± 6.0%
% Infarct area in brain slice # 4 (transient focal ischemia; [9]): 25.2 ± 8.2%
% Infarct area in brain slice # 5 (transient focal ischemia; [9]): −1.3 ± 1.7%
Hemispheric swelling (%) (transient focal ischemia; [9]): 7.0 ± 1.5%
Infarct volume (%) (transient focal ischemia; [9]): 31.1 ± 4.8%
Observed Neurological Deficits Mean ± SEM (transient focal ischemia; [9]): 1.4 ± 0.2
Observed Neurological Deficits, score 0 (number of animals) (transient focal ischemia; [9]): 0
Observed Neurological Deficits, score 1 (number of animals) (transient focal ischemia; [9]): 5
Observed Neurological Deficits, score 2 (number of animals) (transient focal ischemia; [9]): 3
Observed Neurological Deficits, score 3 (number of animals) (transient focal ischemia; [9]): 0
n (dead/total): dead/total (transient focal ischemia; [9]): 8 (3/12)
Observed Neurological Deficits Mean ± SEM (transient focal ischemia; [10]): 1.5 ± 0.3
Observed Neurological Deficits, score 0 (number of animals) (transient focal ischemia; [10]): 0
Observed Neurological Deficits, score 1 (number of animals) (transient focal ischemia; [10]): 2
Observed Neurological Deficits, score 2 (number of animals) (transient focal ischemia; [10]): 2
Observed Neurological Deficits, score 3 (number of animals) (transient focal ischemia; [10]): 0
n (dead/total): dead/total (transient focal ischemia; [10]): 4 (4/8)
infarct volume and hemispheric swelling (in words) (transient focal ischemia): reduces infarct volume but not hemispheric swelling
infarct area (in words) (transient focal ischemia; 6 hours after ischemia, FIG. 5g): improvement in the infarct area
infarct volume (in words) (transient focal ischemia; 6 hours after ischemia, FIG. 5h): decreases infarct volume
neurological deficits induced by ischemia (in words) (transient focal ischemia): reduced neurological deficits induced by ischemia
neurological deficits (in words) (transient focal ischemia; administration 6 hours after ischemia): reduced neurological deficits
times more potent than bis(7)-tacrine [1]: ~1885
times more potent than tacrine [1]: ~20471
Selectivity AchE* [1]: 4563
IC50 [1]: 0.0068 ± 0.003 nM
IC50 [2]: 31.1 ± 1.96 nM
